Source: patent publication US20250171430A1, “PYRAZOLYL COMPOUNDS AS KV7 CHANNEL ACTIVATORS” (Biohaven Therapeutics Ltd., priority 2022, published 2025)

target: T1, Kv7.2/7.3 (Homo sapiens, UniProt O43525+O43526); test: Kv7.2/7.3 Activation Assay (Thallium Flux Assay); format: cell-based; conditions: hKV7.2/7.3 cell line; test compound at single concentration of 10 μM; fluorescence at 90 sec normalized to positive control (retigabine, 30 μM)
T1 construct: Kv7.2 tetracycline-induced, Kv7.3 constitutive
Source text: The Thallium Flux Assay is used as a surrogate indicator of potassium channel activity.
The experimental protocol was adapted from the FluxOR™ II Green Potassium Ion Channel Assay User Guide (Pub. No. MAN0016084, Invitrogen). Conditions were optimized for the Kv7.2/7.3 cell line.
Cell Line: The hKV7.2/7.3 cell line was obtained from Chantest (cat. #CT6147).
Cell Culture: Kv7.2/7.3 cells were maintained in a media containing DMEM/F12; 50/50 (Fisher 11-330), 10% Fetal Bovine Serum (FBS) (Fisher 26-140), 100 units/mL Penicillin-Streptomycin (Fisher 15-140), 0.005 mg/ml Blasticidin (InvivoGen ant-bl-1), 0.5 mg/mL Geneticin (InvivoGen ant-gn-5), and 0.1 mg/mL Zeocin (Fisher R25001). One day prior to experimentation, cells were plated in 96 well clear bottom plates (Corning cat. #353219) in a media without Blasticidin, Geneticin, or Zeocin. In this cell line Kv7.3 channel expression is controlled by a constitutive promoter. Kv7.2 channel expression was induced by adding tetracycline (Sigma T7660) at a final concentration of 10 ng/mL overnight in a cell culture incubator at 37° C. and 5% CO2. On the day of assay, the cell culture medium in the 96-well plates was replaced by assay buffer containing the thallium-sensitive fluorescent sensor, FluxOR II Green prepared according to manufacturer's instructions. The 96-well plates were then incubated for 1 h at 37° C. Following the incubation, the FluxOR II Green-containing solution was replaced with extracellular solution.
Test Compound Plates: The test compound is diluted in a mixture of 0.1% DMSO/extracellular solution at a single concentration of 10 μM. Dilutions were made on a Biomek NXP (BECKMAN COULTER). Extracellular solution contained (in mM: 145 NaCl, 4 KCl, 2 CaCl2), 1 MgCl2, 10 HEPES, and 10 Glucose, pH 7.4).
Measurement and data analysis: Thallium-flux-mediated changes in intracellular fluorescence were made using a plate reader (Enspire, Perkin Elmer) set with an excitation wavelength of 475 nm and an emission wavelength of 530 nm. After a 15 sec baseline measurement, the stimulus buffer containing thallium and potassium was added to the 96-well plate containing FluxOR II Green-loaded cells and test compounds. Fluorescence values at 90 sec were normalized to the positive control (retigabine, 30 μM) and test compound activities were assigned categories according to the formula: “No Activity <0.15, “+” Moderate Activity 0.15-0.7, and “++” High Activity >0.7.

Structure (SMILES) | Kv7.2/7.3 Activity
Cn1nc(NC(=O)OC2CC(F)(F)C2)c(C2CCC2)c1C1CC(F)(F)C1 [Compound 274, 3,3-difluorocyclobutyl (4-cyclobutyl-5-(3,3-difluorocyclobutyl)-1-methyl-1H-pyrazol-3-yl)carbamate] | ++ (“++” High Activity ≥ 0.7)
Cn1nc(NC(=O)C2CC3(CCC3)C2)c(C2CCC2)c1-c1ccc(F)cc1 [Compound 187, N-(4-cyclobutyl-5-(4-fluorophenyl)-1-methyl-1H-pyrazol-3-yl)spiro[3.3]heptane-2-carboxamide] | ++ (“++” High Activity ≥ 0.7)
Cn1nc(NC(=O)CC2CC(F)(F)C2)c(C2CCC2)c1-c1ccc(F)cc1F [Compound 98, N-(4-cyclobutyl-5-(2,4-difluorophenyl)-1-methyl-1H-pyrazol-3-yl)-2-(3,3-difluorocyclobutyl)acetamide] | ++ (“++” High Activity ≥ 0.7)
CCn1nc(NC(=O)Cc2cc(Cl)ccc2Cl)c(C2CC2)c1C [Compound 9, N-(4-cyclopropyl-1-ethyl-5-methyl-1H-pyrazol-3-yl)-2-(2,5-dichlorophenyl)acetamide] | + (“+” Moderate Activity 0.15-0.7)
Cn1nc(NC(=O)NCC(F)(F)F)c(C2CCC2)c1-c1ccc(F)cc1 [Compound 240, 1-(4-cyclobutyl-5-(4-fluorophenyl)-1-methyl-1H-pyrazol-3-yl)-3-(2,2,2-trifluoroethyl)urea] | + (“+” Moderate Activity 0.15-0.7)
Cn1nc(NC(=O)[C@H]2CC2(F)F)c(C2CCC2)c1-c1ccc(F)cc1 [Compound 133, (R)-N-(4-cyclobutyl-5-(4-fluorophenyl)-1-methyl-1H-pyrazol-3-yl)-2,2-difluorocyclopropane-1-carboxamide] | ++ (“++” High Activity ≥ 0.7)
Cn1nc(NC(=O)C2COC2)c(C2CCC2)c1-c1ccc(F)cc1 [Compound 227, N-(4-cyclobutyl-5-(4-fluorophenyl)-1-methyl-1H-pyrazol-3-yl)oxetane-3-carboxamide] | − (“−” No Activity < 0.15)
Cn1nc(NC(=O)CC2(C(F)(F)F)CCC2)c(C2CCC2)c1-c1ccc(OC(F)(F)F)cc1 [Compound 82, N-(4-cyclobutyl-1-methyl-5-(4-(trifluoromethoxy)phenyl)-1H-pyrazol-3-yl)-2-(1-(trifluoromethyl)cyclobutyl)acetamide] | ++ (“++” High Activity ≥ 0.7)
Cn1nc(NC(=O)CC(C)(C)C2CC2)c(C2CC(F)(F)C2)c1-c1ccc(OC(F)(F)F)cc1 [Compound 43, 3-cyclopropyl-N-(4-(3,3-difluorocyclobutyl)-1-methyl-5-(4-(trifluoromethoxy)phenyl)-1H-pyrazol-3-yl)-3-methylbutanamide] | + (“+” Moderate Activity 0.15-0.7)
Cn1nc(NC(=O)C2C(C)(C)C2(C)C)c(C2CCC2)c1-c1ccc(OC(F)(F)F)cc1 [Compound 51, N-(4-cyclobutyl-1-methyl-5-(4-(trifluoromethoxy)phenyl)-1H-pyrazol-3-yl)-2,2,3,3-tetramethylcyclopropane-1-carboxamide] | + (“+” Moderate Activity 0.15-0.7)
Cn1nc(NC(=O)NC2CC(F)(F)C2)c(C2CCC2)c1-c1ccc(F)cc1 [Compound 212, 1-(4-cyclobutyl-5-(4-fluorophenyl)-1-methyl-1H-pyrazol-3-yl)-3-(3,3-difluorocyclobutyl)urea] | + (“+” Moderate Activity 0.15-0.7)
Cn1nc(NC(=O)C2CS(=O)(=O)C2)c(C2CCC2)c1-c1ccc(F)cc1 [Compound 228, N-(4-cyclobutyl-5-(4-fluorophenyl)-1-methyl-1H-pyrazol-3-yl)thietane-3-carboxamide 1,1-dioxide] | − (“−” No Activity < 0.15)
Cn1nc(NC(=O)[C@@H]2CC2(F)F)c(C2CCC2)c1C1CC(F)(F)C1 [Compound 156, (S)-N-(4-cyclobutyl-5-(3,3-difluorocyclobutyl)-1-methyl-1H-pyrazol-3-yl)-2,2-difluorocyclopropane-1-carboxamide] | ++ (“++” High Activity ≥ 0.7)
Cn1nc(NC(=O)C[C@@H]2CC(F)(F)C2(F)F)c(C2CCC2)c1-c1ccc(F)cn1 [Compound 254, (R)-N-(4-cyclobutyl-5-(5-fluoropyridin-2-yl)-1-methyl-1H-pyrazol-3-yl)-2-(2,2,3,3-tetrafluorocyclobutyl)acetamide] | ++ (“++” High Activity ≥ 0.7)
Cn1nc(NC(=O)[C@@H]2CC2(F)F)c(C2CCC2)c1-c1ccc(F)cc1F [Compound 160, (S)-N-(4-cyclobutyl-5-(2,4-difluorophenyl)-1-methyl-1H-pyrazol-3-yl)-2,2-difluorocyclopropane-1-carboxamide] | − (“−” No Activity < 0.15)
Cn1nc(NC(=O)C2(C)CC(F)(F)C2)c(C2CCC2)c1-c1ccc(C(F)(F)F)cc1 [Compound 208, N-(4-cyclobutyl-1-methyl-5-(4-(trifluoromethyl)phenyl)-1H-pyrazol-3-yl)-3,3-difluoro-1-methylcyclobutane-1-carboxamide] | − (“−” No Activity < 0.15)
Cn1nc(NC(=O)CC2COC2)c(C2CCC2)c1-c1ccc(F)cc1 [Compound 85, N-(4-cyclobutyl-5-(4-fluorophenyl)-1-methyl-1H-pyrazol-3-yl)-2-(oxetan-3-yl)acetamide] | − (“−” No Activity < 0.15)
Cn1nc(NC(=O)C2CC(F)(F)C2)c(C2CCC2)c1-c1ccc(Cl)s1 [Compound 194, N-(5-(5-chlorothiophen-2-yl)-4-cyclobutyl-1-methyl-1H-pyrazol-3-yl)-3,3-difluorocyclobutane-1-carboxamide] | ++ (“++” High Activity ≥ 0.7)
Cn1nc(NC(=O)CC2(C(F)F)CC2)c(C2CCC2)c1-c1cc(F)cc(F)c1 [Compound 259, N-(4-cyclobutyl-5-(3,5-difluorophenyl)-1-methyl-1H-pyrazol-3-yl)-2-(1-(difluoromethyl)cyclopropyl)acetamide] | ++ (“++” High Activity ≥ 0.7)
Cn1nc(NC(=O)[C@@H]2CCC(F)(F)C2)c(C2CCC2)c1-c1ccc(F)cc1 [Compound 120, (R)-N-(4-cyclobutyl-5-(4-fluorophenyl)-1-methyl-1H-pyrazol-3-yl)-3,3-difluorocyclopentane-1-carboxamide] | ++ (“++” High Activity ≥ 0.7)
CC(C)c1c(NC(=O)CC(C)(C)C)nn(C)c1-c1ccc(F)cc1 [Compound 22, N-(5-(4-fluorophenyl)-4-isopropyl-1-methyl-1H-pyrazol-3-yl)-3,3-dimethylbutanamide] | ++ (“++” High Activity ≥ 0.7)
Cn1nc(NC(=O)OC2CC(F)(F)C2)c(C2CCC2)c1C1CCC(F)(F)CC1 [Compound 292, 3,3-difluorocyclobutyl (4-cyclobutyl-5-(4,4-difluorocyclohexyl)-1-methyl-1H-pyrazol-3-yl)carbamate] | ++ (“++” High Activity ≥ 0.7)
Cn1nc(NC(=O)C2CC(F)(F)C2)c(C2CCC2)c1C1CCC(F)(F)CC1 [Compound 289, N-(4-cyclobutyl-5-(4,4-difluorocyclohexyl)-1-methyl-1H-pyrazol-3-yl)-3,3-difluorocyclobutane-1-carboxamide] | ++ (“++” High Activity ≥ 0.7)
Cn1nc(NC(=O)CC2(O)CCC2)c(C2CCC2)c1-c1ccc(OC(F)(F)F)cc1 [Compound 87, N-(4-cyclobutyl-1-methyl-5-(4-(trifluoromethoxy)phenyl)-1H-pyrazol-3-yl)-2-(1-hydroxycyclobutyl)acetamide] | + (“+” Moderate Activity 0.15-0.7)
Cn1nc(NC(=O)[C@@H]2CC2(F)F)c(C2CC2)c1-c1ccc(F)cc1 [Compound 163, (S)-N-(4-cyclopropyl-5-(4-fluorophenyl)-1-methyl-1H-pyrazol-3-yl)-2,2-difluorocyclopropane-1-carboxamide] | + (“+” Moderate Activity 0.15-0.7)
Cn1nc(NC(=O)C2(O)CC2)c(C2CCC2)c1-c1ccc(F)cc1 [Compound 130, N-(4-cyclobutyl-5-(4-fluorophenyl)-1-methyl-1H-pyrazol-3-yl)-1-hydroxycyclopropane-1-carboxamide] | − (“−” No Activity < 0.15)
